Drawing on PubChem BioAssay AID2060508 (Molecular Pharmacology Branch, DTP, NCI, 2025), this text covers viability, T/C for four compounds.
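Note: spheroids exposed to compounds for seven days; 100% = DMSO vehicle control viability.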

In one experiment the test system is 454973-116-R2-J3-PDC spheroids, viability, % test/control. Put plainly: Anticancer human tumor 454973-116-R2-J3-PDC patient-derived pancreatic carcinoma cell line growth inhibition [GQUAD]. As to conditions: second compound 0.0316 µM; first compound 3.16 µM; active compounds read low; spheroids with HUVEC and MSC. In short, it runs like this:
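Viability of tumor cells grown as complex spheroids with endothelial and stromal cells, exposed to drug combinations. Top concentration at or near clinical Cmax (else 10 microM), diluted in half-log increments.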
As usually defined, the viability, T/C is the ratio of treated to control. With `COc1ncnc(C2CC2)c1-c1ncc2cnn(Cc3ccc(-c4nc(C(F)(F)F)cn4C(C)C)cc3)c2n1` + Cc1[nH]c2ccc(F)cc2c1-c1nc2c3cccnc3c3ncccc3c2[nH]1, the viability, T/C is 96%.

In the case of `O=C(NO)c1cnc(N2CCN(S(=O)(=O)c3ccc4ccccc4c3)CC2)nc1` + Cc1[nH]c2ccc(F)cc2c1-c1nc2c3cccnc3c3ncccc3c2[nH]1, the viability, T/C was 0.14%.

The experiment is the same for the next values; noted with them: second compound 0.0316 µM; first compound 10 µM; active compounds read low; spheroids with HUVEC and MSC.
Regarding `C=CCn1c(=O)c2cnc(Nc3ccc(N4CCN(C)CC4)cc3)nc2n1-c1cccc(C(C)(C)O)n1` + Cc1[nH]c2ccc(F)cc2c1-c1nc2c3cccnc3c3ncccc3c2[nH]1, the viability, T/C is 10.2%.

Turning to `CC(C)(O)C1CCC(Nc2ccc3ncc(-c4cccc(C(F)(F)F)c4)n3n2)CC1` (configuration not stated) + Cc1[nH]c2ccc(F)cc2c1-c1nc2c3cccnc3c3ncccc3c2[nH]1, the viability, T/C is 32.2%.

For the compound `COc1ncnc(C2CC2)c1-c1ncc2cnn(Cc3ccc(-c4nc(C(F)(F)F)cn4C(C)C)cc3)c2n1` + Cc1[nH]c2ccc(F)cc2c1-c1nc2c3cccnc3c3ncccc3c2[nH]1, the viability, T/C was 102%.

Regarding `O=C(NO)c1cnc(N2CCN(S(=O)(=O)c3ccc4ccccc4c3)CC2)nc1` + Cc1[nH]c2ccc(F)cc2c1-c1nc2c3cccnc3c3ncccc3c2[nH]1, the viability, T/C is 0.29%.

The experiment is the same for the next values; noted with them: second compound 0.1 µM; first compound 0.0316 µM; active compounds read low; spheroids with HUVEC and MSC.
As for `C=CCn1c(=O)c2cnc(Nc3ccc(N4CCN(C)CC4)cc3)nc2n1-c1cccc(C(C)(C)O)n1` + Cc1[nH]c2ccc(F)cc2c1-c1nc2c3cccnc3c3ncccc3c2[nH]1, the viability, T/C was 101%.

Take `CC(C)(O)C1CCC(Nc2ccc3ncc(-c4cccc(C(F)(F)F)c4)n3n2)CC1` (configuration not stated) + Cc1[nH]c2ccc(F)cc2c1-c1nc2c3cccnc3c3ncccc3c2[nH]1: the viability, T/C is 108%.

Take `COc1ncnc(C2CC2)c1-c1ncc2cnn(Cc3ccc(-c4nc(C(F)(F)F)cn4C(C)C)cc3)c2n1` + Cc1[nH]c2ccc(F)cc2c1-c1nc2c3cccnc3c3ncccc3c2[nH]1: the viability, T/C is 126%.

For the compound `O=C(NO)c1cnc(N2CCN(S(=O)(=O)c3ccc4ccccc4c3)CC2)nc1` + Cc1[nH]c2ccc(F)cc2c1-c1nc2c3cccnc3c3ncccc3c2[nH]1, the viability, T/C is 108%.

Still in this experiment, the particulars now being: second compound 0.1 µM; first compound 0.1 µM; active compounds read low; spheroids with HUVEC and MSC.
As for `C=CCn1c(=O)c2cnc(Nc3ccc(N4CCN(C)CC4)cc3)nc2n1-c1cccc(C(C)(C)O)n1` + Cc1[nH]c2ccc(F)cc2c1-c1nc2c3cccnc3c3ncccc3c2[nH]1, the viability, T/C was 95.5%.

Take `CC(C)(O)C1CCC(Nc2ccc3ncc(-c4cccc(C(F)(F)F)c4)n3n2)CC1` (configuration not stated) + Cc1[nH]c2ccc(F)cc2c1-c1nc2c3cccnc3c3ncccc3c2[nH]1: the viability, T/C is 100%.

Regarding `COc1ncnc(C2CC2)c1-c1ncc2cnn(Cc3ccc(-c4nc(C(F)(F)F)cn4C(C)C)cc3)c2n1` + Cc1[nH]c2ccc(F)cc2c1-c1nc2c3cccnc3c3ncccc3c2[nH]1, the viability, T/C is 102%.

In the case of `O=C(NO)c1cnc(N2CCN(S(=O)(=O)c3ccc4ccccc4c3)CC2)nc1` + Cc1[nH]c2ccc(F)cc2c1-c1nc2c3cccnc3c3ncccc3c2[nH]1, the viability, T/C is 104%.

Staying with this experiment, now noted: second compound 0.1 µM; first compound 0.316 µM; active compounds read low; spheroids with HUVEC and MSC.
`C=CCn1c(=O)c2cnc(Nc3ccc(N4CCN(C)CC4)cc3)nc2n1-c1cccc(C(C)(C)O)n1` + Cc1[nH]c2ccc(F)cc2c1-c1nc2c3cccnc3c3ncccc3c2[nH]1: the viability, T/C was 69.8%.

Turning to `CC(C)(O)C1CCC(Nc2ccc3ncc(-c4cccc(C(F)(F)F)c4)n3n2)CC1` (configuration not stated) + Cc1[nH]c2ccc(F)cc2c1-c1nc2c3cccnc3c3ncccc3c2[nH]1, the viability, T/C was 92.1%.

With `COc1ncnc(C2CC2)c1-c1ncc2cnn(Cc3ccc(-c4nc(C(F)(F)F)cn4C(C)C)cc3)c2n1` + Cc1[nH]c2ccc(F)cc2c1-c1nc2c3cccnc3c3ncccc3c2[nH]1, the viability, T/C is 107%.

`O=C(NO)c1cnc(N2CCN(S(=O)(=O)c3ccc4ccccc4c3)CC2)nc1` + Cc1[nH]c2ccc(F)cc2c1-c1nc2c3cccnc3c3ncccc3c2[nH]1: the viability, T/C is 55.7%.

Still in this experiment, the particulars now being: second compound 0.1 µM; first compound 1 µM; active compounds read low; spheroids with HUVEC and MSC.
With `C=CCn1c(=O)c2cnc(Nc3ccc(N4CCN(C)CC4)cc3)nc2n1-c1cccc(C(C)(C)O)n1` + Cc1[nH]c2ccc(F)cc2c1-c1nc2c3cccnc3c3ncccc3c2[nH]1, the viability, T/C is 15%.

As for `CC(C)(O)C1CCC(Nc2ccc3ncc(-c4cccc(C(F)(F)F)c4)n3n2)CC1` (configuration not stated) + Cc1[nH]c2ccc(F)cc2c1-c1nc2c3cccnc3c3ncccc3c2[nH]1, the viability, T/C is 78.1%.

Consider `COc1ncnc(C2CC2)c1-c1ncc2cnn(Cc3ccc(-c4nc(C(F)(F)F)cn4C(C)C)cc3)c2n1` + Cc1[nH]c2ccc(F)cc2c1-c1nc2c3cccnc3c3ncccc3c2[nH]1, for which the viability, T/C is 105%.

With `O=C(NO)c1cnc(N2CCN(S(=O)(=O)c3ccc4ccccc4c3)CC2)nc1` + Cc1[nH]c2ccc(F)cc2c1-c1nc2c3cccnc3c3ncccc3c2[nH]1, the viability, T/C is 4.86%.

Staying with this experiment, now noted: second compound 0.1 µM; first compound 3.16 µM; active compounds read low; spheroids with HUVEC and MSC.
In the case of `C=CCn1c(=O)c2cnc(Nc3ccc(N4CCN(C)CC4)cc3)nc2n1-c1cccc(C(C)(C)O)n1` + Cc1[nH]c2ccc(F)cc2c1-c1nc2c3cccnc3c3ncccc3c2[nH]1, the viability, T/C was 6.68%.

Consider `CC(C)(O)C1CCC(Nc2ccc3ncc(-c4cccc(C(F)(F)F)c4)n3n2)CC1` (configuration not stated) + Cc1[nH]c2ccc(F)cc2c1-c1nc2c3cccnc3c3ncccc3c2[nH]1, for which the viability, T/C was 23.1%.

Take `COc1ncnc(C2CC2)c1-c1ncc2cnn(Cc3ccc(-c4nc(C(F)(F)F)cn4C(C)C)cc3)c2n1` + Cc1[nH]c2ccc(F)cc2c1-c1nc2c3cccnc3c3ncccc3c2[nH]1: the viability, T/C is 92.9%.

Regarding `O=C(NO)c1cnc(N2CCN(S(=O)(=O)c3ccc4ccccc4c3)CC2)nc1` + Cc1[nH]c2ccc(F)cc2c1-c1nc2c3cccnc3c3ncccc3c2[nH]1, the viability, T/C was 0.14%.

Still in this experiment, the particulars now being: second compound 0.1 µM; first compound 10 µM; active compounds read low; spheroids with HUVEC and MSC.
For `C=CCn1c(=O)c2cnc(Nc3ccc(N4CCN(C)CC4)cc3)nc2n1-c1cccc(C(C)(C)O)n1` + Cc1[nH]c2ccc(F)cc2c1-c1nc2c3cccnc3c3ncccc3c2[nH]1, the viability, T/C is 11.6%.

As for `CC(C)(O)C1CCC(Nc2ccc3ncc(-c4cccc(C(F)(F)F)c4)n3n2)CC1` (configuration not stated) + Cc1[nH]c2ccc(F)cc2c1-c1nc2c3cccnc3c3ncccc3c2[nH]1, the viability, T/C was 29.8%.

Take `COc1ncnc(C2CC2)c1-c1ncc2cnn(Cc3ccc(-c4nc(C(F)(F)F)cn4C(C)C)cc3)c2n1` + Cc1[nH]c2ccc(F)cc2c1-c1nc2c3cccnc3c3ncccc3c2[nH]1: the viability, T/C was 100%.

Consider `O=C(NO)c1cnc(N2CCN(S(=O)(=O)c3ccc4ccccc4c3)CC2)nc1` + Cc1[nH]c2ccc(F)cc2c1-c1nc2c3cccnc3c3ncccc3c2[nH]1, for which the viability, T/C is 0.64%.

The same experiment, now with this note: second compound 0.316 µM; first compound 0.0316 µM; active compounds read low; spheroids with HUVEC and MSC.
On to `C=CCn1c(=O)c2cnc(Nc3ccc(N4CCN(C)CC4)cc3)nc2n1-c1cccc(C(C)(C)O)n1` + Cc1[nH]c2ccc(F)cc2c1-c1nc2c3cccnc3c3ncccc3c2[nH]1, for which the viability, T/C is 105%.

Consider `CC(C)(O)C1CCC(Nc2ccc3ncc(-c4cccc(C(F)(F)F)c4)n3n2)CC1` (configuration not stated) + Cc1[nH]c2ccc(F)cc2c1-c1nc2c3cccnc3c3ncccc3c2[nH]1, for which the viability, T/C is 102%.

With `COc1ncnc(C2CC2)c1-c1ncc2cnn(Cc3ccc(-c4nc(C(F)(F)F)cn4C(C)C)cc3)c2n1` + Cc1[nH]c2ccc(F)cc2c1-c1nc2c3cccnc3c3ncccc3c2[nH]1, the viability, T/C is 109%.

Consider `O=C(NO)c1cnc(N2CCN(S(=O)(=O)c3ccc4ccccc4c3)CC2)nc1` + Cc1[nH]c2ccc(F)cc2c1-c1nc2c3cccnc3c3ncccc3c2[nH]1, for which the viability, T/C was 121%.

The experiment is the same for the next values; noted with them: second compound 0.316 µM; first compound 0.1 µM; active compounds read low; spheroids with HUVEC and MSC.
Take `C=CCn1c(=O)c2cnc(Nc3ccc(N4CCN(C)CC4)cc3)nc2n1-c1cccc(C(C)(C)O)n1` + Cc1[nH]c2ccc(F)cc2c1-c1nc2c3cccnc3c3ncccc3c2[nH]1: the viability, T/C was 99%.

On to `CC(C)(O)C1CCC(Nc2ccc3ncc(-c4cccc(C(F)(F)F)c4)n3n2)CC1` (configuration not stated) + Cc1[nH]c2ccc(F)cc2c1-c1nc2c3cccnc3c3ncccc3c2[nH]1, for which the viability, T/C is 98.1%.

As for `COc1ncnc(C2CC2)c1-c1ncc2cnn(Cc3ccc(-c4nc(C(F)(F)F)cn4C(C)C)cc3)c2n1` + Cc1[nH]c2ccc(F)cc2c1-c1nc2c3cccnc3c3ncccc3c2[nH]1, the viability, T/C was 111%.

On to `O=C(NO)c1cnc(N2CCN(S(=O)(=O)c3ccc4ccccc4c3)CC2)nc1` + Cc1[nH]c2ccc(F)cc2c1-c1nc2c3cccnc3c3ncccc3c2[nH]1, for which the viability, T/C is 96.2%.

The same experiment, now with this note: second compound 0.316 µM; first compound 0.316 µM; active compounds read low; spheroids with HUVEC and MSC.
On to `C=CCn1c(=O)c2cnc(Nc3ccc(N4CCN(C)CC4)cc3)nc2n1-c1cccc(C(C)(C)O)n1` + Cc1[nH]c2ccc(F)cc2c1-c1nc2c3cccnc3c3ncccc3c2[nH]1, for which the viability, T/C is 58.7%.

In the case of `CC(C)(O)C1CCC(Nc2ccc3ncc(-c4cccc(C(F)(F)F)c4)n3n2)CC1` (configuration not stated) + Cc1[nH]c2ccc(F)cc2c1-c1nc2c3cccnc3c3ncccc3c2[nH]1, the viability, T/C was 105%.

As for `COc1ncnc(C2CC2)c1-c1ncc2cnn(Cc3ccc(-c4nc(C(F)(F)F)cn4C(C)C)cc3)c2n1` + Cc1[nH]c2ccc(F)cc2c1-c1nc2c3cccnc3c3ncccc3c2[nH]1, the viability, T/C was 106%.

`O=C(NO)c1cnc(N2CCN(S(=O)(=O)c3ccc4ccccc4c3)CC2)nc1` + Cc1[nH]c2ccc(F)cc2c1-c1nc2c3cccnc3c3ncccc3c2[nH]1: the viability, T/C was 62.1%.
